The test system of one data set is ARPE-19 cells. The experiment in a line: ARPE-19 cytotoxicity of liposomal complexes, MTT assay. The data set is classed as cell-based. The settings on record: similar concentrations as cycloretinal, 96-h period. As for the experimental part:
(§1) The liposomal complexes were prepared as follows. Cycloretinal (10 mg), β-Ionone (20 mg), and 2,4-Dimethylbenzaldehyde (20 mg) were dissolved separately in ethanol (1 mL). Glyoxal (5.80 mg), methylglyoxal (7.21 mg), and β-cyclocitral (15.2 mg) were dissolved separately in chloroform (1 mL). A liposome solution of cholesterol (112 mg), Tween 80 (504 mg), and L-α-phosphatidylcholine (730 mg) were dissolved in 16 mL of chloroform. Liposome solution (2 mL) was added to each of the compounds. The solvents were removed under vacuum and charged with nitrogen. Each of the flasks were then mixed with 5 mL of water and stirred at 60° C. for 1 h. Each solution was placed on ice and sonicated with a probe sonicator (15 seconds on/15 seconds off) for 5 min. The solutions were centrifuged at 11,000×g for 30 min and filtered through a 0.2 μm filter. Each sample (10 μL) was added to 1 mL ethanol and measured by absorption via UV-Vis spectroscopy. The extinction coefficients were 9970 M^−1cm^−1, 26343 M^−1cm^−1, and 13476 M^−1cm^−1 for cycloretinal, 2,4-dimethylbenzaldehyde, and β-ionone, respectively. […]
(§2) Cell viability was assessed with the MTT cell proliferation assay. […] The absorbance was subsequently evaluated at 570 nm utilizing a microplate reader (quant absorbance plate reader, BioTek Instruments Inc.) […]

Data set [1] can be described thus: MsP1 catalyzed degradation of cycloretinal; visual inspection and HPLC time course of degradation products. The data set is classed as biochemical. Particulars: at 12 hours. As for the experimental part:
After 24 hours of incubation, broth cultures were transferred to sterile Eppendorf tubes and the organics extracted using an equal volume of dichloromethane (DCM) through vigorous vortexing. The organics were separated by centrifugation (13,000 rpm for 20 minutes), retrieved with a needle, and subsequently concentrated under nitrogen. The dried product was solubilized in 20 μL DCM and analyzed by high performance liquid chromatography (HPLC). HPLC analysis was performed on a Varian Prostar system equipped with a Phenomenex 5 μm 100 Å normal phase column (250×10 mm×5 micron), a UV detector set at 320 nm wavelength and mobile phase comprising 97% DCM and 3% methanol with flow rate of 2 mL/min. Products eluted were further analyzed by GC-MS.
Substrate emulsions (0.01%) were prepared, and Tween 40 was used to enhance solubilization of compounds, or otherwise dissolved in ethanol or DMSO. […]
To generate a standard curve for the degradation products, different concentrations of 2,4-dimethyl benzaldehyde (2, 4, 6, 8, 10 μg/20 μL) and β-ionone (1, 2, 3, 4 μg/20 μL) were analyzed by HPLC under the same conditions as as detailed in Example 3.
To identify the degradation products, cycloretinal was incubated for 1 hour with MsP1 in the presence of hydrogen peroxide. Following incubation, the reaction mixture was extracted and analyzed by GC-MS. […]

Another data set can be described thus: in vitro. The data set is classed as cell-based. The settings on record: human, arpe-19 cells, EC50 (cytotoxicity). As for the experimental part: as §1, with “spectroscopy.” for “spectroscopy. The extinction coefficients were 9970 M^−1cm^−1, 26343 M^−1cm^−1, and 13476 M^−1cm^−1 for cycloretinal, 2,4-dimethylbenzaldehyde, and β-ionone, respectively.”
Following 24 hour incubation with the liposomal complexes, light induced cell damage was measured by exposing cells to 10 min of irradiation (70 W lamp) through a 430 nm bandpass filter (Thor labs, 430±2 nm). […]
as §2

One may read the CC50 as the concentration that lowers cell viability or growth by half. Low readings indicate harm at low concentration, high ones better tolerance by the cells.

Structures are written as SMILES. Entries after “also recorded” stand apart in the source; their conditions may differ.

In the case of `CC(=O)/C=C/C1=C(C)CCCC1(C)C` [β-ionone], in the data set on ARPE-19 cells, the “impact on cell viability / toxicity to ARPE-19 cells” value was “no impact on cell viability; also recorded: do not exhibit toxicity”. Also, the “level of degradation product in MsP1/cycloretinal reaction (HPLC, standard curve)” value in data set [1] is reported as “undetectable levels”.

In the data set “in vitro”, `CC(C=CC1=C(C)CCCC1(C)C)=CC=CC1=CC=C(C=O)C(C)(C=CC=C(C)C=CC2=C(C)CCCC2(C)C)C1` (stereo not drawn) [cycloretinal] came in with a cytotoxic concentration (CC50) at 24 h of 93 ± 6.1 µM.

Values taken from patent publication US20260130973A1, “COMPOSITIONS AND METHODS FOR DEGRADATION OF LIPOFUSCIN CYCLORETINAL BY MSP1” (THE TEXAS A&M UNIVERSITY SYSTEM, priority 2022, published 2026).
